Assay results reported in patent US10897901B2, “Herbicidal composition” (FMC Corporation, priority 2007, dated 2021).

Legend:
Assay type in all cases: in vivo
[1] = test system: Blackseed Plantain (Plantago rugelii); assay: Example 2 post-emergent turf plot test, plantain; conditions: 0.75 lb ai/acre
Experimental: (§1) The experimental design used randomized plots with post-emergent treatment and three replications per test trial. The size of each experimental plot was 4 feet by 6 feet. The application of each test composition was performed with pressurized back-pack sprayers, calibrated to spray 200 gallons per acre. Test compositions containing sulfentrazone (DISMISS™ Turf Herbicide), quinclorac, (FACET® 75 DF herbicide) or a mixture of sulfentrazone and quinclorac in a one to three ratio, prepared as described above, were diluted with water to provide the appropriate test rate concentrations.
(§2) The control of weeds was evaluated in each experimental plot from 1 to 27 days after treatment (DAT) of each test rate. The results, shown as an average of the replications, were compared with results observed in untreated control plots in the same trials.

[2] = test system: Ivyleaf Morningglory (Ipomoea hederacea); assay: Example 4 post-emergence greenhouse pot test, morningglory
Experimental: (§3) Test compositions containing sulfentrazone (75 DF formulation), quniclorac, (DRIVE® 75 DF Herbicide) or mixtures of sulfentrazone and quinclorac at ratios of 1:1 to 1:5, were diluted with water to provide the appropriate test rate concentrations. A nonionic surfactant (0.25%) was added to each test solution. The test weeds include crabgrass (Digitaria sp), Chickweed (Stellaria media), Hemp Sesbania (Sesbania exaltata), Kochia (Kochia scoparia), Ivyleaf Morningglory (Ipomoea hederacea), Redroot Pigweed (Amaranthus retroflexus) and yellow nutsedge (Cyperus esculentusi).
(§4) For post-emergence testing, three disposable 3 inch square pots for each rate of application of each herbicide were filled with a soil, comprised of peat moss, vermiculite, bark ash, pine bark, limestone and a wetting agent, to which 8 to 10 seeds were planted. The pots were placed in a greenhouse and watered daily, thus allowing the seeds to germinate and the foliage to develop for 22 days, 3 months for Kochia.
(§5) Pots designated for treatment were placed on a conveyor belt and the conveyor belt fed under a spray nozzle mounted about ten inches above the foliage. The spray of herbicidal solution was commenced and once stabilized; the pots were passed under the spray at a speed to receive a coverage equivalent of 30 gallons per acre. The application rates are those shown in Table 4 below for the individual herbicidal solutions and the mixture of sulfentrazone and quinclorac. The post-emergence pots were immediately placed in the green-house and not watered until 24 hours after treatment with the test solution. Thereafter they were regularly watered at ground level. The control of weeds was evaluated in each experimental test from 2 to 20 days after treatment (DAT). The results, shown as an average of the replications, were compared with results observed in untreated control pots in the same tests.
(§6) Percent control was determined by a method similar to the 0 to 100 rating system disclosed in “Research Methods in Weed Science,” 2nd ed., B. Truelove, Ed.; Southern Weed Science Society; Auburn University, Auburn, Ala., 1977.

[3] = test system: Field Violet (Viola arvensis); assay: Example 2 post-emergent turf plot test, violet; conditions: 0.75 lb ai/acre
Experimental: as §1, §2

[4] = test system: Chickweed (Stellaria media); assay: Example 4 post-emergence greenhouse pot test, chickweed
Experimental: as §3, §4, §5, §6

[5] = test system: Smooth Crabgrass (Digitaria ischaemum); assay: Example 2 post-emergent turf plot test, tillered crabgrass; conditions: 0.75 lb ai/acre
Experimental: as §1, §2

[6] = test system: yellow nutsedge (Cyperus esculentusi); assay: Example 3 post-emergence greenhouse pot test, nutsedge
Experimental: Test compositions containing sulfentrazone (DISMISS™ Turf Herbicide), quniclorac, (DRIVE® 75 DF Herbicide) or mixture of sulfentrazone and quinclorac in a three to one ratio, prepared as described above, were diluted with water to provide the appropriate test rate concentrations. A nonionic surfactant (0.25%) was added to each test solution.
The test weeds include Red River crabgrass (Digitaria ciliaris) and yellow nutsedge (Cyperus esculentusi).
For post-emergence testing, three disposable 3 inch square pots for each rate of application of each herbicide were filled with a soil, comprised of peat moss, vermiculite, bark ash, pine bark, limestone and a wetting agent, to which 8 to 10 seeds were planted. The pots were placed in a greenhouse and watered daily, thus allowing the seeds to germinate and the foliage to develop.
as §5, with “Table 3” for “Table 4”, “from 1” for “from 2”, “to 22” for “to 20”
as §6

O=C(O)c1c(Cl)ccc2cc(Cl)cnc12 [B, 3,7-dichloro-8-quinolinecarboxylic acid]
Percent Control ([1]; 7 DAT): 83% | Percent Control ([1]; 14 DAT): 100% | Percent Control ([1]; 21 DAT): 100% | Percent Control ([2]; 0.25 lb ai/acre, 2 DAT): 20% | Percent Control ([2]; 0.25 lb ai/acre, 7 DAT): 25% | Percent Control ([2]; 0.25 lb ai/acre, 14 DAT): 60% | Percent Control ([2]; 0.25 lb ai/acre, 20 DAT): 70% | Percent Control ([2]; 0.5 lb ai/acre, 2 DAT): 20% | Percent Control ([2]; 0.5 lb ai/acre, 7 DAT): 25% | Percent Control ([2]; 0.5 lb ai/acre, 14 DAT): 40% | Percent Control ([2]; 0.5 lb ai/acre, 20 DAT): 50% | Percent Control ([2]; 0.75 lb ai/acre, 2 DAT): 20% | Percent Control ([2]; 0.75 lb ai/acre, 7 DAT): 25% | Percent Control ([2]; 0.75 lb ai/acre, 14 DAT): 40% | Percent Control ([2]; 0.75 lb ai/acre, 20 DAT): 50% | Percent Control ([2]; 1.0 lb ai/acre, 2 DAT): 20% | Percent Control ([2]; 1.0 lb ai/acre, 7 DAT): 25% | Percent Control ([2]; 1.0 lb ai/acre, 14 DAT): 50% | Percent Control ([2]; 1.0 lb ai/acre, 20 DAT): 70% | Percent Control ([2]; 1.25 lb ai/acre, 2 DAT): 20% | Percent Control ([2]; 1.25 lb ai/acre, 7 DAT): 25% | Percent Control ([2]; 1.25 lb ai/acre, 14 DAT): 40% | Percent Control ([2]; 1.25 lb ai/acre, 20 DAT): 50% | Percent Control ([3]; 7 DAT): 46% | Percent Control ([3]; 14 DAT): 48% | Percent Control ([3]; 21 DAT): 51% | Percent Control ([4]; 0.25 lb ai/acre, 2 DAT): 0% | Percent Control ([4]; 0.25 lb ai/acre, 7 DAT): 0% | Percent Control ([4]; 0.25 lb ai/acre, 14 DAT): 0% | Percent Control ([4]; 0.25 lb ai/acre, 20 DAT): 0% | Percent Control ([4]; 0.5 lb ai/acre, 2 DAT): 0% | Percent Control ([4]; 0.5 lb ai/acre, 7 DAT): 0% | Percent Control ([4]; 0.5 lb ai/acre, 14 DAT): 0% | Percent Control ([4]; 0.5 lb ai/acre, 20 DAT): 0% | Percent Control ([4]; 0.75 lb ai/acre, 2 DAT): 0% | Percent Control ([4]; 0.75 lb ai/acre, 7 DAT): 0% | Percent Control ([4]; 0.75 lb ai/acre, 14 DAT): 0% | Percent Control ([4]; 0.75 lb ai/acre, 20 DAT): 0% | Percent Control ([4]; 1.0 lb ai/acre, 2 DAT): 0% | Percent Control ([4]; 1.0 lb ai/acre, 7 DAT): 5% | Percent Control ([4]; 1.0 lb ai/acre, 14 DAT): 5% | Percent Control ([4]; 1.0 lb ai/acre, 20 DAT): 5% | Percent Control ([4]; 1.25 lb ai/acre, 2 DAT): 5% | Percent Control ([4]; 1.25 lb ai/acre, 7 DAT): 5% | Percent Control ([4]; 1.25 lb ai/acre, 14 DAT): 2% | Percent Control ([4]; 1.25 lb ai/acre, 20 DAT): 5% | Percent Control ([5]; 7 DAT): 54% | Percent Control ([5]; 14 DAT): 66% | Percent Control ([5]; 21 DAT): 67% | Percent Control ([6]; 1-5 leaf stage, 7 days old, 0.375 lb ai/acre, 1 DAT): 0% | Percent Control ([6]; 1-5 leaf stage, 7 days old, 0.375 lb ai/acre, 3 DAT): 0% | Percent Control ([6]; 1-5 leaf stage, 7 days old, 0.375 lb ai/acre, 7 DAT): 0% | Percent Control ([6]; 1-5 leaf stage, 7 days old, 0.375 lb ai/acre, 14 DAT): 0% | Percent Control ([6]; 1-5 leaf stage, 7 days old, 0.375 lb ai/acre, 21 DAT): 0% | Percent Control ([6]; 1-5 leaf stage, 7 days old, 0.75 lb ai/acre, 1 DAT): 0% | Percent Control ([6]; 1-5 leaf stage, 7 days old, 0.75 lb ai/acre, 3 DAT): 0% | Percent Control ([6]; 1-5 leaf stage, 7 days old, 0.75 lb ai/acre, 7 DAT): 0% | Percent Control ([6]; 1-5 leaf stage, 7 days old, 0.75 lb ai/acre, 14 DAT): 0% | Percent Control ([6]; 1-5 leaf stage, 7 days old, 0.75 lb ai/acre, 21 DAT): 0% | Percent Control ([6]; 1-5 leaf stage, 7 days old, 1.0 lb ai/acre, 1 DAT): 0% | Percent Control ([6]; 1-5 leaf stage, 7 days old, 1.0 lb ai/acre, 3 DAT): 0% | Percent Control ([6]; 1-5 leaf stage, 7 days old, 1.0 lb ai/acre, 7 DAT): 0% | Percent Control ([6]; 1-5 leaf stage, 7 days old, 1.0 lb ai/acre, 14 DAT): 0% | Percent Control ([6]; 1-5 leaf stage, 7 days old, 1.0 lb ai/acre, 21 DAT): 0% | Percent Control ([6]; 5-7 leaves, cut to 6 cm tall, 28 days old, 0.375 lb ai/acre, 1 DAT): 0% | Percent Control ([6]; 5-7 leaves, cut to 6 cm tall, 28 days old, 0.375 lb ai/acre, 3 DAT): 5% | Percent Control ([6]; 5-7 leaves, cut to 6 cm tall, 28 days old, 0.375 lb ai/acre, 7 DAT): 5% | Percent Control ([6]; 5-7 leaves, cut to 6 cm tall, 28 days old, 0.375 lb ai/acre, 14 DAT): 5% | Percent Control ([6]; 5-7 leaves, cut to 6 cm tall, 28 days old, 0.375 lb ai/acre, 21 DAT): 0% | Percent Control ([6]; 5-7 leaves, cut to 6 cm tall, 28 days old, 0.75 lb ai/acre, 1 DAT): 0% | Percent Control ([6]; 5-7 leaves, cut to 6 cm tall, 28 days old, 0.75 lb ai/acre, 3 DAT): 0% | Percent Control ([6]; 5-7 leaves, cut to 6 cm tall, 28 days old, 0.75 lb ai/acre, 7 DAT): 2% | Percent Control ([6]; 5-7 leaves, cut to 6 cm tall, 28 days old, 0.75 lb ai/acre, 14 DAT): 2% | Percent Control ([6]; 5-7 leaves, cut to 6 cm tall, 28 days old, 0.75 lb ai/acre, 21 DAT): 0% | Percent Control ([6]; 5-7 leaves, cut to 6 cm tall, 28 days old, 1.0 lb ai/acre, 1 DAT): 0% | Percent Control ([6]; 5-7 leaves, cut to 6 cm tall, 28 days old, 1.0 lb ai/acre, 3 DAT): 5% | Percent Control ([6]; 5-7 leaves, cut to 6 cm tall, 28 days old, 1.0 lb ai/acre, 7 DAT): 5% | Percent Control ([6]; 5-7 leaves, cut to 6 cm tall, 28 days old, 1.0 lb ai/acre, 14 DAT): 5% | Percent Control ([6]; 5-7 leaves, cut to 6 cm tall, 28 days old, 1.0 lb ai/acre, 21 DAT): 0%
